Laboratory results published in PMC10216263, “Favorable Preclinical Pharmacological Profile of a Novel Antimalarial Pyrrolizidinylmethyl Derivative of 4-amino-7-chloroquinoline with Potent In Vitro and In Vivo Activities” (Biomolecules, 2023).
Where two headings read alike, the source gives them in different places.

Assays:
[1] = Intrinsic clearance in hepatocytes; type: in vitro ADME
Description: (§1) An automatic liquid handling system (Multiprobe II EX, Packard) was used for sampling. At 0, 10, 20, 30, 60 and 90 min, […] aliquots of the incubates were taken and added with […] of ice-cold ACN and […] of 1 µM warfarin in ACN (internal standard), and samples centrifuged at 2000 rpm for 20 min. The analysis of supernatant was conducted using LC-MS/MS. MG3 was incubated in the medium under the same conditions to evaluate the chemical stability; 7-ethoxycoumarin (7-ETC) 1 µM and 7-hydroxycoumarin (7-HC) 30 µM were utilized as positive controls for Phase I and Phase II activities. […] Half-life and CLint were determined from the concentration (counts) remaining at the different sampling points using the LC-MS/MS method. The slope was calculated using linear regression analysis of the curve (natural logarithmic area of the compound remaining against the time) and converted into the half-life (t1/2) and CLint expressed as µL/min/million cells and mL/min/kg, respectively.

dog hepatocytes = experiment: Intrinsic clearance in hepatocytes; type: in vitro ADME; details: 1 µM
Description: as §1

human hepatocytes = experiment: Intrinsic clearance in hepatocytes; type: in vitro ADME; details: 1 µM
Description: as §1

monkey hepatocytes = experiment: Intrinsic clearance in hepatocytes; type: in vitro ADME; details: 1 µM
Description: as §1

mouse hepatocytes = experiment: Intrinsic clearance in hepatocytes; type: in vitro ADME; details: 1 µM
Description: as §1

rat hepatocytes = experiment: Intrinsic clearance in hepatocytes; type: in vitro ADME; details: 1 µM
Description: as §1

[2] = 7-day oral dose range finding (DRF) and systemic exposure in rats; type: in vivo, Sprague Dawley rats
Description: (§2) Seven days oral DRF in rats and dog, and five days oral DRF in Non-Human Primates (NHP) were performed using Sprague Dawley rats (n = 3/time point) of both sexes, one male and one female dog Beagle (Marshall/Green Hill) and one male and one female monkeys/Cynomolgus (Noveprim Ltd., Mahebourg Mauritius,). MG3 was administered as oral suspension in 0.5% methocel in water (400 cP viscosity) at the following doses: 30, 60 and 120 mg/kg/day for 7 days (rat), 15 and 30 mg/kg/days for 7 days (dog) and 25, 50 and 75 mg/kg/day (NHP). No Observed Effects Levels (NOEL) were determined. Mortality, behavior, and general conditions were observed daily. Body weight was recorded pre-test, and on Days 1, 4 and 7. Food consumption was recorded from Days 1 to 4 and 4 to 7. Hematological and clinical chemistry examinations were performed on Day 8. All animals were sacrificed under anesthesia at the end of the treatment period on Day 8 of study. Post-mortem examinations included necropsy, collection, and histological examination performed of selected organs/tissues.
Systemic exposure was measured in three additional rats/sex/group at different time-points up to 24 and 48 h after the treatment and on Days 1 and 7, respectively.

[3] = Oral DRF and systemic exposure in NHP; type: in vivo, Cynomolgus monkeys; details: for AUC(0-t) / Cmax / Tmax: po, 50 mg/kg/day; for half-life: plasma, Day 5, 50 mg/kg/day oral, read-out: t1/2, z (converted)
Description: as §2

[4] = system: Salmonella typhimurium TA100; experiment: Bacterial Reverse Mutation Assay; details: TA 100, with metabolic activation
Description: using the preincubation method (30 min, 37°C) with and without phenobarbital-5,6-benzoflavone induced
MG3 was dissolved in distilled water (H2O) at
the maximum concentration of 40 mg/mL and tested in a preliminary range-finding test in all strains of
metabolic activation to determine the toxicity of the compound.

[5] = male, Sprague Dawley, rat, in vivo, po, 30 mg/kg/day
[6] = both sexes, cynomolgus monkey, in vivo
[7] = female, cynomolgus monkey, in vivo
[8] = male, cynomolgus monkey, in vivo

Compound `Clc1ccc2c(NCC34CCCN3CCC4)ccnc2c1` [MG3, 7-Chloro-N-((hexahydro-1H-pyrrolizin-7a-yl)methyl)quinolin-4-amine] has a CLint scaled at 1 µM ([1]; dog hepatocytes) of 111 mL/min/kg, a CLint scaled at 1 µM ([1]; human hepatocytes) of 4.9 mL/min/kg and a CLint scaled at 1 µM ([1]; monkey hepatocytes) of 44 mL/min/kg. It also gave a CLint scaled at 1 µM ([1]; mouse hepatocytes) of 196 mL/min/kg, a CLint scaled at 1 µM ([1]; rat hepatocytes) of 51 mL/min/kg and a Half/life (dog hepatocytes) of 0.8 h. The Half/life (human hepatocytes) was 5.67 h, the Half/life (monkey hepatocytes) was 1.43 h and the Half/life (mouse hepatocytes) was 0.517 h. The Half/life (rat hepatocytes) was 1.08 h, the mortality ([2]; 30, 60, and 120 mg/kg/day oral, 7 days) was “no mortality occurred” and the MTD at 7 days ([2]; both sexes, Sprague Dawley, rat, in vivo, oral, 7 days, rats, read-out: maximum tolerated dose (MTD)) was 120 mg/kg/day. It also gave an AUC(0-t) ([2]; female, Sprague Dawley, rat, in vivo, po, 30 mg/kg/day, AUC0–24) of 2560 ± 650 ng·h/mL, an AUC(0-t) ([2]; female, Sprague Dawley, rat, in vivo, po, 30 mg/kg/day, AUC0–48) of 3800 ± 1000 ng·h/mL and a Cmax ([2]; female, Sprague Dawley, rat, in vivo, po, 30 mg/kg/day) of 149 ± 34 ng/mL. For the same compound, the AUC(0-t) ([2]; female, Sprague Dawley, rat, in vivo, po, 60 mg/kg/day, AUC0–24) was 8630 ± 870 ng·h/mL, the AUC(0-t) ([2]; female, Sprague Dawley, rat, in vivo, po, 60 mg/kg/day, AUC0–48) was 15000 ± 900 ng·h/mL and the Cmax ([2]; female, Sprague Dawley, rat, in vivo, po, 60 mg/kg/day) was 646 ± 201 ng/mL. The AUC(0-t) ([2]; female, Sprague Dawley, rat, in vivo, po, 120 mg/kg/day, AUC0–24) was 19400 ± 7500 ng·h/mL, the AUC(0-t) ([2]; female, Sprague Dawley, rat, in vivo, po, 120 mg/kg/day, AUC0–48) was 29800 ± 9600 ng·h/mL and the Cmax ([2]; female, Sprague Dawley, rat, in vivo, po, 120 mg/kg/day) was 1570 ± 270 ng/mL. The AUC(0-t) ([2]; female, Sprague-Dawley, rat, in vivo, po, 30 mg/kg/day, AUC0–24) was 2530 ± 500 ng·h/mL, the AUC(0-t) ([2]; female, Sprague-Dawley, rat, in vivo, po, 60 mg/kg/day, AUC0–24) was 4740 ± 770 ng·h/mL and the Cmax ([2]; female, Sprague-Dawley, rat, in vivo, po, 60 mg/kg/day) was 259 ± 46 ng/mL. For the same compound, the AUC(0-t) ([2]; female, Sprague-Dawley, rat, in vivo, po, 120 mg/kg/day, AUC0–24) was 5210 ± 1600 ng·h/mL, the Cmax ([2]; female, Sprague-Dawley, rat, in vivo, po, 120 mg/kg/day) was 411 ± 288 ng/mL and the “AUC0–24” value [2, 5] was 1880 ± 190 ng·h/mL. For the same compound, the AUC(0-t) ([2]; male, Sprague Dawley, rat, in vivo, po, 30 mg/kg/day, AUC0–24) was 1880 ± 380 ng·h/mL, the AUC(0-t) ([2]; male, Sprague Dawley, rat, in vivo, po, 30 mg/kg/day, AUC0–48) was 2460 ± 550 ng·h/mL and the Cmax [2, 5] was 140 ± 30 ng/mL. For the same compound, the AUC(0-t) ([2]; male, Sprague Dawley, rat, in vivo, po, 60 mg/kg/day, AUC0–24) was 5090 ± 450 ng·h/mL, the AUC(0-t) ([2]; male, Sprague Dawley, rat, in vivo, po, 60 mg/kg/day, AUC0–48) was 7330 ± 310 ng·h/mL and the Cmax ([2]; male, Sprague Dawley, rat, in vivo, po, 60 mg/kg/day) was 321 ± 50 ng/mL. It also gave an AUC(0-t) ([2]; male, Sprague Dawley, rat, in vivo, po, 120 mg/kg/day, AUC0–24) of 17400 ± 3200 ng·h/mL, an AUC(0-t) ([2]; male, Sprague Dawley, rat, in vivo, po, 120 mg/kg/day, AUC0–48) of 27500 ± 3900 ng·h/mL and a Cmax ([2]; male, Sprague Dawley, rat, in vivo, po, 120 mg/kg/day) of 1090 ± 260 ng/mL. It also gave an AUC(0-t) ([2]; male, Sprague-Dawley, rat, in vivo, po, 60 mg/kg/day, AUC0–24) of 3530 ± 180 ng·h/mL, a Cmax ([2]; male, Sprague-Dawley, rat, in vivo, po, 60 mg/kg/day) of 220 ± 10 ng/mL and an AUC(0-t) ([2]; male, Sprague-Dawley, rat, in vivo, po, 120 mg/kg/day, AUC0–24) of 3840 ± 700 ng·h/mL. The Cmax ([2]; male, Sprague-Dawley, rat, in vivo, po, 120 mg/kg/day) was 209 ± 49 ng/mL, the food consumption ([2]; rat, in vivo) was “Minimal to moderate decrease in food consumption” and the “clinical chemistry on Day 8” value ([2]; rat, in vivo, 120 mg/kg/day) was “slight to moderate increase in ALT and AST”. The “systemic exposure in females higher than in males” value ([2]; rat, in vivo, po) was “about two-fold”, the “mortality and liver toxicity” value ([2]; up to 60 mg/kg, 7-day oral toxicity study) was “no mortality and no clinical evidence of liver toxicity” and the tolerability ([3]; NHP, 50 mg/kg/day for five consecutive days) was “tolerated with limited clinical signs”. The toxicity finding ([3]; NHP, 75 mg/kg/day oral (Phase I, incremental doses)) was “associated with mortality and severe CNS-related clinical signs”, the AUC(0-t) [3, 6] was 896 ± 132 ng·h/mL and the Cmax [3, 6] was 70.1 ± 3.68 ng/mL. It also gave a Tmax [3, 6] of 1.25 ± 1.06 h, an MTD at 5 days ([3]; both sexes, cynomolgus monkey, in vivo, NHP, 5-day oral, read-out: maximum tolerated dose (MTD)) of 50 mg/kg/day and a half-life ([3]; both sexes, cynomolgus monkey, Mean ± SD of male and female NHP) of 14.9 ± 10.3 h. For the same compound, the half-life ([3]; cynomolgus monkey, Female NHP) was 22.2 h, the half-life ([3]; cynomolgus monkey, Male NHP) was 7.66 h and the AUC(0-t) [3, 7] was 989 ng·h/mL. It also gave a Cmax [3, 7] of 72.7 ng/mL, a Tmax [3, 7] of 0.5 h and an AUC(0-t) [3, 8] of 802 ng·h/mL. The Cmax [3, 8] was 67.5 ng/mL, the Tmax [3, 8] was 2 h and the “fold increase value (ratio treated/solvent revertant numbers)” value ([4]; I° Exp., 62.5 µg/plate) was 0.6. The “fold increase value (ratio treated/solvent revertant numbers)” value ([4]; I° Exp., 125 µg/plate) was 0.6, the “fold increase value (ratio treated/solvent revertant numbers)” value ([4]; I° Exp., 250 µg/plate) was 0.8 and the “fold increase value (ratio treated/solvent revertant numbers)” value ([4]; I° Exp., 500 µg/plate) was 0.8. For the same compound, the “fold increase value (ratio treated/solvent revertant numbers)” value ([4]; I° Exp., 1000 µg/plate) was 0.8, the “fold increase value (ratio treated/solvent revertant numbers)” value ([4]; Range finding, 1.95 µg/plate) was 1.1 and the “fold increase value (ratio treated/solvent revertant numbers)” value ([4]; Range finding, 3.9 µg/plate) was 1.1. For the same compound, the “fold increase value (ratio treated/solvent revertant numbers)” value ([4]; Range finding, 7.81 µg/plate) was 1.2, the “fold increase value (ratio treated/solvent revertant numbers)” value ([4]; Range finding, 15.63 µg/plate) was 0.9 and the “fold increase value (ratio treated/solvent revertant numbers)” value ([4]; Range finding, 31.25 µg/plate) was 1.0. The “fold increase value (ratio treated/solvent revertant numbers)” value ([4]; Range finding, 62.5 µg/plate) was 1.0, the “fold increase value (ratio treated/solvent revertant numbers)” value ([4]; Range finding, 125 µg/plate) was 1.0 and the “fold increase value (ratio treated/solvent revertant numbers)” value ([4]; Range finding, 250 µg/plate) was 1.0. For the same compound, the “fold increase value (ratio treated/solvent revertant numbers)” value ([4]; Range finding, 500 µg/plate) was 1.2 and the “fold increase value (ratio treated/solvent revertant numbers)” value ([4]; Range finding, 1000 µg/plate) was 0.7.
